# Laboratory results reported in paper PMC4591261, “Design, Synthesis and Evaluation of 2,5-Diketopiperazines as Inhibitors of the MDM2-p53 Interaction” (PLoS ONE, 2015).
# Several values for one entry are separate records, joined by “and”; a condition that tells them apart may be missing. Equal entries are not always repeated.
# Legend:
# MDM2 [1] = target: T1, MDM2 (Homo sapiens, UniProt Q00987); assay: Surface plasmon resonance (SPR) binding to biotinylated MDM2; conditions: 1:1 interaction model, 20 °C; for Rmax (RU): SPR
# T1 sequence (Q00987 whole entry): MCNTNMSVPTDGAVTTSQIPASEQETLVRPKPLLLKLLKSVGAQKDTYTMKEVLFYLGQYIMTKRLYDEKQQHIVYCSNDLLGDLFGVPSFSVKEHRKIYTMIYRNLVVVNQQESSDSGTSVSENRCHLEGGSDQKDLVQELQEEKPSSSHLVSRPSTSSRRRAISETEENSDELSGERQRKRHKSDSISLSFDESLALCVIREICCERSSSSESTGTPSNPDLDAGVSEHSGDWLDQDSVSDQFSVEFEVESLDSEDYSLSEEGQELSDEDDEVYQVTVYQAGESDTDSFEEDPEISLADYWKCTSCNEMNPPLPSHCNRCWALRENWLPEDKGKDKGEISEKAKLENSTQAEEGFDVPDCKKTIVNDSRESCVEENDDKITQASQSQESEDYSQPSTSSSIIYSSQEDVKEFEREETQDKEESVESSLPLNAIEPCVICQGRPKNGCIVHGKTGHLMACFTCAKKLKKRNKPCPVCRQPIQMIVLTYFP
# Experimental: To confirm binding to the target, surface plasmon resonance (SPR) was used to study interactions of 52RR and 52RS with MDM2 [41, 42].
# MDM2 was minimally biotinylated by reaction with EZ-Link Sulfo-NHS-LC-LC-Biotin (Thermo Scientific). The biotin reagent was added to the protein at a 0.5:1 molar ratio, and the reaction was incubated on ice for 3-4 hours. Unconjugated biotin was removed by processing the samples through two Zeba Spin Desalting Columns (Thermo Scientific) that had been equilibrated with storage buffer (20 mM Bis-Tris pH 6.5, 200 mM NaCl, 20 mM dithiothreitol, 20% glycerol). Bovine serum albumin (BSA) was added to the reaction at a final concentration of 0.1 mg/mL immediately prior to processing through the spin columns to improve recovery.^2 The biotinylated protein was aliquotted, flash-frozen and stored at -80° C for use in subsequent binding experiments.
# SPR experiments were conducted at 20 °C using a SensiQ Pioneer optical biosensor (SensiQ Technologies). Neutravidin (Thermo Scientific) was covalently immobilized on a polysaccharide hydrogel-coated gold surface (COOH5 chip; SensiQ Technologies) using routine amine coupling chemistry in immobilization buffer (10 mM HEPES pH 7.4, 150 mM NaCl, 0.005% Tween20). Carboxyl groups on the hydrogel were activated with N-ethyl-N´-(3-dimethylaminopropyl) carbodiimide (EDC) and N-hydroxysuccinimide (NHS), and neutravidin was injected in 10 mM sodium acetate pH 5.0 until immobilization levels of ~3000-3400 RU were achieved. Remaining active sites were blocked by reaction with ethanolamine. The instrument was primed with binding buffer (20 mM Tris pH 8.0, 100 mM NaCl, 5 mM dithiothreitol, 0.005% Tween20, 5% glycerol, 5% DMSO), and biotinylated MDM2 was injected until ~1070 RU of protein was captured. Unoccupied biotin-binding sites of neutravidin on both the reference and protein surfaces were blocked with amine-PEG2-biotin (Thermo Scientific) to minimize potential non-specific binding by the compounds.^3
# The data were processed, double-referenced, solvent corrected and analyzed^4 using the software package Qdat (version 2.5.5.12 , BioLogic Software). The equilibrium dissociation constants (KD) were determined by fitting the data to a 1:1 (Langmuir) interaction model.
# GST-MDM2 (1 – 188) = GST-MDM2 (1 – 188) (Homo sapiens, UniProt Q00987); assay: Fluorescence polarisation (FP) assay, displacement of Texas Red labeled wild-type p53 peptide from MDM2; type: binding; conditions: for IC50: 1 μM GST-MDM2 (1-188), 15 nM Texas Red labeled wild-type p53 peptide, 1 h at r.t., 95% CI; for activity in the FP-assay (in words): tested concentrations up to 100 μM
# Chain of GST-MDM2 (1 – 188) (Q00987 1-188): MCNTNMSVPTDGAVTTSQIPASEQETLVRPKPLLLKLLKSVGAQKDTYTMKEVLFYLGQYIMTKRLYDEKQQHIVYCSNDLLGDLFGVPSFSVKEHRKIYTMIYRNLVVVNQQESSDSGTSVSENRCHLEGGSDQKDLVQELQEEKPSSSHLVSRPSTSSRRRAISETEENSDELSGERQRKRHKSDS
# Experimental: To evaluate the 2,5-DKPs as potential MDM2-p53 inhibitors, the same FP-assay was used as for the type III inhibitors.
# The FP assay was performed in black 384-well microtiter plates at a final volume of 20 μL per well. […] Two to seven independent experiments of normalized data were combined into a data set, and then fit using a non-linear regression in GraphPad Prism with the formula log(inhibitor) vs. response – Variable slope (four parameters). Additionally the residuals of the curve fit were plotted to determine the fit of the theoretical curve. IC50 and 95% confidence intervals (CI) were determined from these graphs.
# MDM2 [2] = target: T1, MDM2; assay: WaterLOGSY NMR binding experiment; conditions: compound 200 µM, MDM2 protein 5 µM, 298 K
# Experimental: All NMR experiments were performed at 298 K (25 °C) using a Bruker Avance 600 MHz spectrometer equipped with TCI cryogenic gradient probe. Compounds (20 mM stock solution in DMSO-D6) were added to buffer (25mM HEPES, pH7.2, 150 mM NaCl, 2mM TCEP) or buffer containing MDM2 protein (5 µM) to give final compound concentration of 200 µM. One-dimensional (1D) ^1H- and WaterLOGSY (water-ligand observed via gradient spectroscopy)^8 NMR spectra were recorded for compounds, protein, and compounds plus protein, respectively. NMR spectra were processed using Bruker Topspin software.
Rmax (RU) (MDM2 [1]),IC50 (GST-MDM2 (1 – 188)),binding to MDM2 by WaterLOGSY (in words) (MDM2 [2]),SMILES,activity in the FP-assay (in words) (GST-MDM2 (1 – 188)),ka (M^-1s^-1) (MDM2 [1]; SPR kinetic analysis),kd (s^-1) (MDM2 [1]; SPR kinetic analysis)
16.6 (± 0.2) RU,31.4 µM and 31 µM,confirmed binding,"O=C(O)CN1C(=O)[C@@H](c2ccc(Cl)cc2)N(c2ccc(Cl)cc2)C(=O)[C@H]1Cc1ccccc1 [52RR, (3R,6R)-3-Benzyl-1,6-(di-4-chlorophenyl)-4-(carboxy-methyl)-piperazine-2,5-dione]",,,
,,,"CC(C)(C)OC(=O)CN1C(=O)[C@@H](c2ccc(Cl)cc2)N(c2ccc(Cl)cc2)C(=O)[C@H]1Cc1ccccc1 [44RR, (3R,6R)-3-Benzyl-1,6-(di-4-chlorophenyl)-4-(tert-butoxy-carbonyl-methyl)-piperazine-2,5-dione]",inactive,,
,,,"CC(C)(C)OC(=O)CN1C(=O)[C@H](c2ccc(Cl)cc2)N(c2ccc(Cl)cc2)C(=O)[C@H]1Cc1ccccc1 [44RS, (3R,6S)-3-Benzyl-1,6-(di-4-chlorophenyl)-4-(tert-butoxy-carbonyl-methyl)-piperazine-2,5-dione]",inactive,,
16.8 (± 0.2) RU,28 µM,confirmed binding,"O=C(O)CN1C(=O)[C@H](c2ccc(Cl)cc2)N(c2ccc(Cl)cc2)C(=O)[C@H]1Cc1ccccc1 [52RS, (3R,6S)-3-Benzyl-1,6-(di-4-chlorophenyl)-4-(carboxy-methyl)-piperazine-2,5-dione]",,,

SMILES,Rmax (RU) (MDM2 [1]),IC50 (GST-MDM2 (1 – 188)),binding to MDM2 by WaterLOGSY (in words) (MDM2 [2]),activity in the FP-assay (in words) (GST-MDM2 (1 – 188)),ka (M^-1s^-1) (MDM2 [1]; SPR kinetic analysis),kd (s^-1) (MDM2 [1]; SPR kinetic analysis)
COc1ccc(C2=N[C@@H](c3ccc(Cl)cc3)[C@@H](c3ccc(Cl)cc3)N2C(=O)N2CCNC(=O)C2)c(OC(C)C)c1 [Nutlin-3a],28.4 (± 0.1) RU,,,,9.10 (± 0.01) x 10^5 M^-1s^-1,2.80 (± 0.01) x 10^-2 s^-1
